Assay results as given in article PMC8010047, “New insights into the molecular mechanism behind mannitol and erythritol fructosylation by β-fructofuranosidase from Schwanniomyces occidentalis” (Scientific Reports, 2021).

What was measured:
[1] = target: T1, β-fructofuranosidase from Schwanniomyces occidentalis (Ffase) (Schwanniomyces occidentalis, UniProt E5D0X5, D50A); assay: X-ray crystallography (soaking); assay type: binding
T1 construct: expressed in Saccharomyces cerevisiae (SUC2-disrupted), secreted, DEAE-purified; homodimer of 160 kDa, 535 residues per subunit; GH32; deglycosylated for crystals

[2] = target: T1, β-fructofuranosidase from Schwanniomyces occidentalis (Ffase); assay: X-ray crystallography; assay type: binding; details: crystals incubated with fructosyl-mannitol, sucrose from traces in the product; deglycosylated inactive mutant; active site subsites -1/+1; paper deposits 6S2B and 6S1T without assigning them

T1 sequence (E5D0X5 entry or part of it D50A): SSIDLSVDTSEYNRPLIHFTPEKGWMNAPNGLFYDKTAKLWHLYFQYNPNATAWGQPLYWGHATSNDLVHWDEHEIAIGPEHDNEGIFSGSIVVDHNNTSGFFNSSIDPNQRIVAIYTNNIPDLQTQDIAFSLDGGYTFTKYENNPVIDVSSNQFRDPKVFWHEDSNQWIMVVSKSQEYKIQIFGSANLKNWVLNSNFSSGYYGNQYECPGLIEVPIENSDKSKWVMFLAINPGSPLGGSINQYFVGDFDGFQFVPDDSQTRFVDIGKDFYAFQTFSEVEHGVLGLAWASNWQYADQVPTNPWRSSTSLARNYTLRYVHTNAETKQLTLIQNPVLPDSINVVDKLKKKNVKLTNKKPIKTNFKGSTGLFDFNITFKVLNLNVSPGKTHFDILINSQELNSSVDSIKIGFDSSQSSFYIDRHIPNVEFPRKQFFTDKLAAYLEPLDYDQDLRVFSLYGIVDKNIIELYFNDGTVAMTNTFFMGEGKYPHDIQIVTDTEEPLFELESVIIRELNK

Question: For `OCC(O)C(O)CO[C@]1(CO)O[C@H](CO)[C@@H](O)[C@@H]1O` (stereo partly drawn) [fructosyl-erythritol, 1/4-O-β-D-fructofuranosyl-D-erythritol], which “X-ray crystallography (soaking)” value ([1]; 100 mM ligand soak, pH 6.0, deglycosylated inactive mutant, active site subsites -1/+1, 1.88 Å, paper deposits 6S2B and 6S1T without assigning them) is on record?
Answer: Its value is “The formation of Ffase-D50A/fructosyl-erythritol complex was clearly detected”.

Question: With `OC[C@H]1O[C@@](CO)(O[C@H]2O[C@H](CO)[C@@H](O)[C@H](O)[C@H]2O)[C@@H](O)[C@@H]1O` [sucrose] as the molecule, how does the X-ray crystallography [2] read?
Answer: The X-ray crystallography was “only sucrose was observed in crystals grown in the presence of fructosyl-mannitol”.

Question: `OC[C@@]1(O)OC[C@@H](O)[C@@H](O)[C@@H]1O` [β-fructose] was tested. Which “X-ray crystallography (soaking)” value ([1]; soaked with β-fructose plus mannitol or erythritol, active site, structure not deposited) did it give?
Answer: The value was “only fructose was bound at the active site in both experiments”.
